The target of the first assay is Carbonyl reductase [NADPH] 3 (Homo sapiens) (UniProt O75828). Put plainly: CBR3 binders by thermal stabilization, biophysical, DSF, SYPRO orange, recombinant protein (AID 512). The conditions noted are these: at 10 µM, buffer 10 mM HEPES, pH 7.5, NaCl 150 mM, NADP 100 µM, protein 2 µM, stronger effect = higher value.
Chain of Carbonyl reductase [NADPH] 3 (Homo sapiens) (O75828 whole entry, looked up): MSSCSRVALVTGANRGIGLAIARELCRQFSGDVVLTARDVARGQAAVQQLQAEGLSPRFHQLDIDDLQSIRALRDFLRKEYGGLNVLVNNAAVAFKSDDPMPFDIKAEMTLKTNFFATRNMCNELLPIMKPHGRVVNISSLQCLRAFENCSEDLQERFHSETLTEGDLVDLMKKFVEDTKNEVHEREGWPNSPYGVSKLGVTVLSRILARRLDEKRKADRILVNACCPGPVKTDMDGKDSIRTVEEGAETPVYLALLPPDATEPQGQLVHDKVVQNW
With `Cc1ccc2c(c1)=C(c1[nH]c(=S)[nH]c1O)C(=O)N=2`, the Tm shift was 2.4 Celsius.

For `Brc1ccc(-c2[nH]c(-c3c[nH]c4ccccc34)nc2-c2ccccc2)cc1`, the Tm shift is 2.1 Celsius. As for `COc1cc(/C=C/C(=O)CC(=O)/C=C/c2ccc(O)c(OC)c2)ccc1O`, the Tm shift is 3.1 Celsius.

Still in this assay, the particulars now being: at 10 µM, buffer 10 mM HEPES, pH 7.5, NaCl 150 mM, protein 2 µM, stronger effect = higher value.
With `O=C1C(=O)C(c2ccc(O)cc2)Oc2cc(O)cc(O)c21` (centres undefined), the Tm shift is 2.1 Celsius. Turning to `CCN(CC)C(=S)SSC(=S)N(CC)CC`, the Tm shift is 2.5 Celsius.

Regarding `O=c1oc2cc(O)ccc2c2oc3cc(O)ccc3c12`, the Tm shift was 3.1 Celsius. Same read-out and setting: next, `NC(=O)c1ccc[n+](C2OC(COP(=O)(O)OP(=O)(O)OCC3OC(n4cnc5c(N)ncnc54)C(OP(=O)(O)O)C3O)C(O)C2O)c1` (centres undefined): 4.4 Celsius. Same read-out and setting: next, `O=C1C(=O)C(c2ccc(O)cc2O)Oc2cc(O)cc(O)c21` (centres undefined): 2.2 Celsius.

Staying with this assay, now noted: measured here: second experiment Tm shift, at 10 µM, run 2, buffer 10 mM HEPES, pH 7.5, NaCl 150 mM, NADP 100 µM, protein 2 µM, stronger effect = higher value.
On to `COc1cc(/C=C/C(=O)CC(=O)/C=C/c2ccc(O)c(OC)c2)ccc1O`, for which the Tm shift was determined as 2.4 Celsius.

The values above are taken from PubChem BioAssay AID512.
